Measured values as given in article PMC6225118 (2018).

Columns and labels:
[1] = test system: Myc22 (c-myc) (DNA, G4) TGAGGGTGGGTAGGGTGGGTAA; assay: G4-FID, thiazole orange displacement; details: 10 mM lithium cacodylate pH 7.4, 20 °C; partial displacement, up to 60%
[2] = test system: F21CTAT (DNA, G4) GGGCTAGGGCTAGGGCTAGGG; assay: FRET melting; details: 10 mM K+, 90 mM Li+; 10 mM lithium cacodylate pH 7.2; 0.2 µM DNA, 1 µM compound
[3] = test system: ds26 (DNA, duplex) CAATCGGATCGAATTCGATCCGATTG; assay: G4-FID, thiazole orange displacement; details: 10 mM lithium cacodylate pH 7.4, 20 °C, 0.25 µM DNA; up to 10 equivalents
[4] = test system: FKit2T (DNA, G4) GGGCGGGCGCGAGGGAGGGG; assay: FRET melting; details: 10 mM K+, 90 mM Li+; 10 mM lithium cacodylate pH 7.2; 0.2 µM DNA, 1 µM compound
[5] = test system: 22AG (DNA, G4) AGGGTTAGGGTTAGGGTTAGGG; assay: CD titration, 260 nm, Hill1 fit; details: 100 mM Na+; apparent; 10 mM lithium cacodylate pH 7.2, 20 °C, 5 µM DNA
[6] = test system: FMycT (DNA, G4) TTGAGGGTGGGTAGGGTGGGTAA; assay: FRET melting; details: 1 mM K+, 99 mM Li+; 10 mM lithium cacodylate pH 7.2; 0.2 µM DNA, 1 µM compound
[7] = test system: 22AG (DNA, G4) AGGGTTAGGGTTAGGGTTAGGG; assay: CD titration; details: 100 mM K+; 10 mM lithium cacodylate pH 7.2, 20 °C, 5 µM DNA
[8] = test system: F21T (DNA, G4) GGGTTAGGGTTAGGGTTAGGG; assay: FRET melting; details: 10 mM lithium cacodylate pH 7.2, 0.2 µM DNA, 1 µM compound
[9] = test system: 22CTA (DNA, G4) AGGGCTAGGGCTAGGGCTAGGG; assay: G4-FID, thiazole orange displacement; details: 10 mM lithium cacodylate pH 7.4, 20 °C; partial displacement, saturates at 40–60%
[10] = test system: FCEB25wtT (DNA, G4) AAGGGTGGGTGTAAGTGTGGGTGGGT; assay: FRET melting; details: 1 mM K+, 99 mM Li+; 10 mM lithium cacodylate pH 7.2; 0.2 µM DNA, 1 µM compound
[11] = test system: FCEB25L111TT (DNA, G4) AAGGGTGGGTGGGTGGGT; assay: FRET melting; details: 1 mM K+, 99 mM Li+; 10 mM lithium cacodylate pH 7.2; 0.2 µM DNA, 1 µM compound
[12] = test system: FBcl2T (DNA, G4) AGGGGCGGGCGCGGGAGGAAGGGGGCGGGAGCGGGGCTG; assay: FRET melting; details: 10 mM K+, 90 mM Li+; 10 mM lithium cacodylate pH 7.2; 0.2 µM DNA, 1 µM compound

## Cc1nc(-c2cccc(-c3noc(-c4cccc(-c5nc(-c6cccc(-c7noc(C)n7)n6)no5)c4)n3)n2)no1
[1]
  binding: yes
[2]
  ΔTm: 4.1 ± 0.1 °C
[3]
  binding: no
[4]
  ΔTm: 5.3 ± 0.4 °C
[5]
  Kd: 3.3 µM
[6]
  ΔTm: 3.9 ± 0.9 °C
[7]
  binding: yes
[8]; 10 mM K+, 90 mM Li+
  ΔTm: 10.8 ± 0.4 °C
[8]; 100 mM Na+
  ΔTm: 16.6 ± 0.8 °C
[9]
  binding: yes
[10]
  ΔTm: 0.9 ± 0.7 °C
[11]
  ΔTm: 0.9 ± 0.8 °C
[12]
  ΔTm: 2.9 ± 0.7 °C

## Cc1nc(-c2cccc(-c3noc(-c4cccc(-c5nc(-c6cccc(-c7noc(C)n7)n6)no5)n4)n3)n2)no1
[1]
  binding: yes
[2]
  ΔTm: 5.5 ± 0.2 °C
[3]
  binding: no
[4]
  ΔTm: 4.1 ± 0.3 °C
[5]
  Kd: 3.6 µM
[7]
  binding: yes
[8]; 10 mM K+, 90 mM Li+
  ΔTm: 11.5 ± 0.6 °C
[8]; 100 mM Na+
  ΔTm: 13.8 ± 0.4 °C
[9]
  binding: yes
